In PMC9228656 (Toxins, 2022):
Like-named read-outs stand apart in the source and are kept apart here.

Legend:
[1] = tested on: Salmonella typhimurium 1535/pSK1002
[2] = tested on: Salmonella typhimurium 1535/pSK1002; remark: listed apart in the source
[3] = tested on: Salmonella tester strains; details: cited from earlier work
[4] = tested on: Salmonella typhimurium 1535/pSK1002; remark: listed apart in the source
Escherichia coli PQ37 = details: cited from earlier work
[5] = tested on: 1535, 1538 and 98 strains; details: cited from earlier work
Escherichia coli = details: cited from earlier work

Compound	experiments with IF values above two [2]	mutagenic activity in the Ames test [3]	genotoxicity result in the SOS/umu test [1]	genotoxicity result in the SOS/umu test [2]	genotoxicity result in the SOS/umu test [4]	other results
Nc1ccc2cc3ccccc3cc2c1 [2AA, 2-aminoanthracene, reference compound]	–	–	–	–	–	experiments in which the compound was genotoxic [1]: eight out of eight experiments; induction factor (IF) reached ([1]; Salmonella typhimurium): around 4
CC(=O)O[C@@H]1C[C@]2(C)[C@@]3(CO)[C@H](O)C(=O)C(C)=C[C@H]3O[C@H]1[C@@]21CO1 [3ADON, 3-acetyldeoxynivalenol]	three out of four experiments	mutagenic activity was not found	–	–	–	–
CC(=O)OC[C@]12[C@H](O)C(=O)C(C)=C[C@H]1O[C@@H]1[C@H](O)C[C@@]2(C)[C@]12CO2 [15ADON, 15-acetyldeoxynivalenol]	two out of four experiments	–	–	–	–	–
CC1=C[C@H]2O[C@@H]3[C@H](O)C[C@](C)([C@@]2(CO)[C@H](O)C1=O)[C@]31CO1 [DON, deoxynivalenol]	–	mutagenic activity was not found	negative (key: IF values above or equal to two were considered as positive when the bacterial survival is above 80%; IF values below 1.5 were considered negative; IF among 2 and 1.5 were considered equivocal)	negative (key: IF values above or equal to two were considered as positive when the bacterial survival is above 80%; IF values below 1.5 were considered negative; IF among 2 and 1.5 were considered equivocal)	negative (key: IF values above or equal to two were considered as positive when the bacterial survival is above 80%; IF values below 1.5 were considered negative; IF among 2 and 1.5 were considered equivocal)	highest IF value obtained ([2]; Salmonella typhimurium): 1.94; genotoxicity in the SOS chromotest (Escherichia coli PQ37): negative
CC(=O)O[C@@H]1[C@@H](O)[C@H]2O[C@@H]3C=C(C)C(=O)[C@@H](O)[C@]3(CO)[C@]1(C)[C@]21CO1 [F-X, fusarenon-X]	–	mutagenic activity was not found	negative (key: IF values above or equal to two were considered as positive when the bacterial survival is above 80%; IF values below 1.5 were considered negative; IF among 2 and 1.5 were considered equivocal)	negative (key: IF values above or equal to two were considered as positive when the bacterial survival is above 80%; IF values below 1.5 were considered negative; IF among 2 and 1.5 were considered equivocal)	negative (key: IF values above or equal to two were considered as positive when the bacterial survival is above 80%; IF values below 1.5 were considered negative; IF among 2 and 1.5 were considered equivocal)	highest IF value obtained [2]: 1.88
CCCC[C@@H](C)[C@@H](OC(=O)C[C@@H](CC(=O)O)C(=O)O)[C@H](C[C@@H](C)C[C@H](O)CCCC[C@@H](O)C[C@H](O)[C@H](C)N)OC(=O)C[C@@H](CC(=O)O)C(=O)O [FB1, fumonisin B1]	–	–	negative (key: IF values above or equal to two were considered as positive when the bacterial survival is above 80%; IF values below 1.5 were considered negative; IF among 2 and 1.5 were considered equivocal)	negative (key: IF values above or equal to two were considered as positive when the bacterial survival is above 80%; IF values below 1.5 were considered negative; IF among 2 and 1.5 were considered equivocal)	negative (key: IF values above or equal to two were considered as positive when the bacterial survival is above 80%; IF values below 1.5 were considered negative; IF among 2 and 1.5 were considered equivocal)	IF value reached [2]: 1.99; genotoxicity in the SOS chromotest (Escherichia coli PQ37): negative; mutagenic potential in the Ames test [3]: negative
CC(=O)OC[C@]12C[C@H](OC(=O)CC(C)C)C(C)=C[C@H]1O[C@@H]1[C@H](O)[C@@H](O)[C@@]2(C)[C@]12CO2 [HT-2, HT-2 toxin]	two out of four experiments	–	–	–	–	–
C[C@@H]1Cc2c(Cl)cc(C(=O)N[C@@H](Cc3ccccc3)C(=O)O)c(O)c2C(=O)O1 [OTA, ochratoxin A]	–	–	negative (key: IF values above or equal to two were considered as positive when the bacterial survival is above 80%; IF values below 1.5 were considered negative; IF among 2 and 1.5 were considered equivocal)	negative (key: IF values above or equal to two were considered as positive when the bacterial survival is above 80%; IF values below 1.5 were considered negative; IF among 2 and 1.5 were considered equivocal)	negative (key: IF values above or equal to two were considered as positive when the bacterial survival is above 80%; IF values below 1.5 were considered negative; IF among 2 and 1.5 were considered equivocal)	mutagenicity in the Ames test [5]: mutagenic; SOS repair activity in SOS chromotest (Escherichia coli PQ37): induced SOS repair activity; response in SOS chromotest (Escherichia coli PQ37): weak response; mutagenic response in the Ames test [3]: negative; mutagenicity with Salmonella tester strains [3]: consistently negative
COc1cc2c(c3oc4cccc(O)c4c(=O)c13)[C@@H]1C=CO[C@@H]1O2 [STER, sterigmatocystin]	one out of four experiments	–	–	–	–	induction factor (IF) [1]: greater than two
CC(=O)OC[C@]12C[C@H](OC(=O)CC(C)C)C(C)=C[C@H]1O[C@@H]1[C@H](O)[C@@H](OC(C)=O)[C@@]2(C)[C@]12CO2 [T-2, T-2 toxin]	three out of four experiments	mutagenic activity was not found	–	–	–	–
C[C@H]1CCCC(=O)CCC/C=C/c2cc(O)cc(O)c2C(=O)O1 [ZEA, zearalenone]	–	–	negative (key: IF values above or equal to two were considered as positive when the bacterial survival is above 80%; IF values below 1.5 were considered negative; IF among 2 and 1.5 were considered equivocal)	negative (key: IF values above or equal to two were considered as positive when the bacterial survival is above 80%; IF values below 1.5 were considered negative; IF among 2 and 1.5 were considered equivocal)	negative (key: IF values above or equal to two were considered as positive when the bacterial survival is above 80%; IF values below 1.5 were considered negative; IF among 2 and 1.5 were considered equivocal)	genotoxic concentration (induction of SOS repair) (Escherichia coli): 1.5 mM; IC50 (Escherichia coli; read-out: IC50 (toxicity)): 1.45 mM; result in the Ames test [3]: negative
aflatoxin B1 [AFB1]	–	–	–	–	–	mutagenicity with metabolic activation relative to without bioactivation [3]: 1000 times
